Assays:
[1] = system: PD-L1; assay: PD-L1 expression (RNA and protein) after HDAC inhibitor treatment in colorectal cell lines; assay type: cell-based, human, mouse; settings: for PD-L1 expression in MSS compared with MSI colorectal cell lines: MSS compared with MSI colorectal cell lines (summary statement); for PD-L1 expression upon HDAC inhibitor treatment, MSS cell lines: SW620, LS513, and CT26, IC50 and ½ IC50, 48 hours, HDAC3 inhibitor compared with HDAC6 and HDAC8 (FIG. 2), HDAC8 inhibitor concentration-dependent (FIG. 6)
Procedure: (§1) The HDAC3 inhibitor experiment was conducted by harvesting cells 48 hours after the treatment at each inhibitor concentration and obtaining RNA and proteins. RGFP966 (S7229) purchased from SellekChem was used as an HDAC3 inhibitor. Specifically, SW620, LS513, DLD-1, CT26, and MC38 were individually cultured, and the experiments were conducted using the IC50 and ½ IC50 concentration on the basis of the previously determined IC50 concentration. RNA and protein samples were collected 48 hours after RGFP966 treatment. The RNA samples were isolated using the TRIzol, isopropanol, and chloroform, and the protein samples were collected by lysis with a lysis buffer (Roche, 4719956001). RNA was synthesized into cDNA using a cDNA synthesis kit (Bioneer, K-2044-B), and real-time PCR was performed using a method according to SYBR (Applied Biosystems, 4367659). Proteins were quantified using the Bradford assay (Bio-Rad, 50000006), and subjected to loading, transfer, blocking (3% skim milk; BD, 232100), primary antibody (24 h, 4 °C), and secondary antibody sequentially, thereby developing PD-L1.
The HDAC6 inhibitor experiment was conducted by the same method as in the HDAC3 inhibitor experiment of Experimental Example 3, and Nexturastat A HDAC6 selective inhibitor purchased from SellekChem was used as an HDAC6 inhibitor.
The HDAC8 inhibitor experiment was conducted by the same method as in the HDAC3 inhibitor experiment of Experimental Example 3, and PCI-34051 HDAC8 selective inhibitor purchased from SellekChem was used as an HDAC8 inhibitor.
The HDAC6 and HDAC8 inhibitor experiment was conducted by harvesting cells 48 hours after the treatment and then obtaining RNA and proteins.

[2] = system: PD-L1; assay: PD-L1 expression after HDAC3 inhibitor treatment in mouse cells; assay type: cell-based; settings: IC50 and ½ IC50, 48 hours, FIG. 2
Procedure: as §1

[3] = system: PD-L1; assay: PD-L1 expression by HDAC6 inhibitor, MSI versus MSS colorectal cancer cell lines; assay type: cell-based; settings: IC50 and half-IC50; MSI DLD-1, HCT116, MC38; MSS SW620, HT29, CT26; FIG. 15
Procedure: (§2) The IC50 values of the HDAC6 inhibitor (Nexturastat A) in three MSI colorectal cancer cell lines (DLD-1, HCT116, and MC38) and three MSS colorectal cancer cell lines (SW620, HT29, and CT26) were determined. The cells were then treated with the inhibitor at the IC50 and half-IC50 concentrations (concentration corresponding to ½ of the IC50 value), and the expression levels of the immune checkpoint proteins PD-L1 and B7H3 were measured.

[4] = system: B7H3; assay: B7H3 expression by HDAC6 inhibitor, MSI versus MSS colorectal cancer cell lines; assay type: cell-based; settings: IC50 and half-IC50; MSI DLD-1, HCT116, MC38; MSS SW620, HT29, CT26; FIG. 15
Procedure: as §2

[5] = Body weight of mice, HDAC6 inhibitor animal experiment; assay type: in vivo, BALB/C mice; settings: HDAC6i 20 mpk i.p. daily; FIG. 9D
Procedure: The animal experiment using an HDAC6 inhibitor was conducted using a total of three groups, a control group (control), an HDAC6i (Next A) group, and an HDAC6i (Next A)+anti-PD-L1 group. Nexturastat A (SellekChem) was used as HDAC6i (HDAC6 inhibitor), and #BE0101 (Bioxcell) was used as an anti-PD-L1 antibody. CT26 (1×10^6) cells and BALB/C mice were used. Three mice for the control group, three mice for the HDAC6i group, and four mice for the HDAC6i+anti-PD-L1 group were used.
• HDAC6i group: HDAC6i 20 mpk (mg/kg) intraperitoneally injected daily • HDAC6i+anti-PD-L1 group: HDAC6i 20 mpk intraperitoneally injected every day and anti-PD-L1 antibody 10 mpk intraperitoneally injected three times per week.

[6] = system: CT26 tumor; assay: CD8 T cell-dependent CT26 tumor growth suppression with anti-CD8a pre-treatment; assay type: in vivo, BALB/C mice; settings: concluded from anti-CD8a blocking
Procedure: To examine the hypothesis that an HDAC6 inhibitor suppresses CT26 tumor growth in a CD8 T cell-dependent manner, an experiment on the combination with anti-CD8a antibody was further conducted by pre-treatment with anti-CD8a antibody, which binds to CD8 T cells. The experiment was conducted by intraperitoneally administering an anti-CD8a antibody to animals from 3 days before tumor cell injection at 3-day intervals to inhibit CD8 T cells and administering an HDAC6 inhibitor and an anti-PD-L1 antibody.
Specifically, the experiment was conducted on a total of four groups: a control group, an anti-CD8a group, an HDAC6i (Next A)+anti-PD-L1 group, and an HDAC6i (Next A)+anti-PD-L1+anti-CD8a group. CT26 cells (1×10^6) for a cell line, Nexturastat A (SellekChem) as HDAC6i (HDAC6 inhibitor), #BE0101 (Bioxcell) as an anti-PD-L1 antibody, and #BE017 (Bioxcell) as an anti-CD8a antibody were used. BALB/C mice were used. In addition, 6 mice for the control group, 6 mice for the anti-CD8a group, 6 mice for the HDAC6i (Next A)+anti-PD-L1 group, and 8 mice for the HDAC6i (Next A)+anti-PD-L1+anti-CD8a group were used. […]

SMILES	PD-L1 expression in MSS compared with MSI colorectal cell lines [1]	PD-L1 expression upon HDAC inhibitor treatment, MSS cell lines [1]	PD-L1 expression upon HDAC3 inhibitor treatment, mouse cells [2]	PD-L1 expression at the RNA and protein levels upon HDAC6 inhibitor treatment ([1]; MSS cell lines SW620, LS513, HT29, and CT26, depending on the concentration, 48 hours, FIG. 4)	PD-L1 expression in MSS compared with MSI cell line [3]	B7H3 expression in MSS compared with MSI cell line [4]	body weight of the animals [5]	CD8 T cell dependence of CT26 tumor growth suppression [6]
COc1ccc(Cn2ccc3ccc(C(=O)NO)cc32)cc1 [PCI-34051]	further up-regulated	increase in PD-L1 expression at the RNA and protein levels	–	–	–	–	–	–
Nc1cc(F)ccc1NC(=O)/C=C/c1cnn(C/C=C/c2ccccc2)c1 [RGFP966]	–	small increases	decrease tendency	–	–	–	–	–
CCCCN(Cc1ccc(C(=O)NO)cc1)C(=O)Nc1ccccc1 [Nexturastat A]	further up-regulated	–	–	increase in PD-L1 expression at the RNA and protein levels	distinct increase tendencies	distinct increase tendencies	not reduced	suppressed CT26 tumor growth in a CD8 T cell-dependent manner

— patent US20260345553A1, “COMPOSITION FOR TREATING CANCER COMPRISING HISTONE DEACETYLASE INHIBITOR, AND ANTICANCER ADJUVANT FOR CANCER IMMUNOTHERAPY” (SAMSUNG LIFE PUBLIC WELFARE FOUNDATION, priority 2022, published 2026)
